Test results reported in patent US7053041B1, “Methods and compositions useful for inhibition of αvβ5mediated angiogenesis” (The Scripps Research Institute, priority 1996, dated 2006).
[ ]: non-standard residue; d: D form.

Assays:
[1] = system: VEGF-induced angiogenesis; experiment: chick CAM assay, VEGF-induced angiogenesis, intravenous inhibitors; type: in vivo; details: for inhibition of VEGF-induced CAM angiogenesis: VEGF 150 ng/ml, 75 μg antibody or peptide intravenously, 72 hours
Description: Ten day old chick embryos were obtained from McIntyre Poultry (Lakeside, Calif.) and incubated at 37C with 60% humidity. A small hole was made through the shell at the end of the egg directly over the air sac with the use of a small crafts drill (Dremel, Division of Emerson Electric Co., Racine, Wis.). A second hole was drilled on the broad side of the egg in a region devoid of embryonic blood vessels determined previously by candling the egg. […] A 1.0 centimeter (cm)×1.0 cm square window was cut through the shell over the dropped CAM with the use of a small model grinding wheel (Dremel). The small window allowed direct access to the underlying CAM.
Angiogenesis was induced by placing a 5 millimeter (mm)×5 mm Whatman filter disk (Whatman Filter paper No. 1) saturated with Hanks Balanced Salt Solution (HBSS, GIBCO, Grand Island, N.Y.) or HBSS containing preselected cytokines at a preselected concentration, i.e. one to test the effect on angiogenesis, on the CAM of a 10 day chick embryo in a region devoid of blood vessels and the windows were later sealed with tape. Angiogenesis was monitored by photomicroscopy after 72 hours. CAMs were snap frozen then 6 μm cryostat sections were fixed with acetone and stained by immunofluorescence as described in Example 2B and 2C with 10 μg/ml of selected anti-integrin antibodies, including those directed against αvβ5 as described in Example 1.
Angiogenesis was first induced on 10 day old chick embryos by application of growth factor-saturated filter disks. Specifically, in the first assays, angiogenesis was induced by exposure to either bFGF or VEGF, each at a concentration of 150 ng/ml.
For application of growth factors, during the candling procedures, prominent blood vessels were selected and marks were made on the egg shell to indicate their positions. The holes were drilled in the shell, the CAMs were dropped and growth factor-saturated filter papers were then separately placed on the CAMs as described above. The windows were sealed with sterile tape and the embryos were replaced in the incubator.
Twenty four hours later, a second small window was carefully cut on the lateral side of the egg shell directly over prominent blood vessels selected previously. The outer egg shell was carefully removed leaving the embryonic membranes intact. The shell membrane was made transparent with a small drop of mineral oil (Perkin-Elmer Corp, Norwalk, Conn.) which allowed the blood vessels to be visualized easily. Then, phosphate buffered saline (PBS), 75 μg of purified sterile anti-integrin antibodies or 75 μg of synthetic peptides (cyclic peptide RGDfV, SEQ ID NO 4 and control cyclic peptide RADfV, SEQ ID NO 5) in PBS were injected into blood vessels apparent on the growth factor-induced CAMs. The windows were sealed with tape and the embryos were allowed to incubate until 72 hours.
The filter discs and representative surrounding CAM tissues were photographed in a stereomicroscope (FIGS. 3A–3F and FIGS. 5A–5F) and the mean angiogenic index +/− the standard error was determined for 12 CAMs per condition (FIGS. 4A–4B and FIGS. 6A–6B). Angiogenesis was scored for each embryo in a double blind manner by analyzing the number and extent of branching of blood vessels within the area of each disc. The scores ranged from 1 (low) to 4 (high) and the angiogenesis index was determined by subtracting a background of 1 from all data.
In a further assay performed in the CAM model having VEGF-induced angiogenesis, 2 μg of peptides 85189 (SEQ ID NO 9) and the inert salt counterpart 121974 were separately intravenously injected as previously described. The effect of the peptides was assessed in comparison to that of control peptide 69601 (SEQ ID NO 5) and to untreated (labeled as NT) preparations.
The effect of the peptides of VEGF-induced angiogenesis is measured through a determination of the number of blood vessel branch points. […]

[2] = system: bFGF-induced angiogenesis; experiment: in vivo rabbit eye model assay, bFGF-induced corneal angiogenesis
Description: Hydron polymer pellets containing growth factor and monoclonal antibodies (mAbs) were prepared as described by D'Amato, et al., Proc. Natl. Acad. Sci., 91:4082–4085 (1994). […] In addition, hydron pellets were prepared which contained either 40 μg of the mAb P1F6 (anti-αvβ5) or the control antibody, LM609 (anti-αvβ3), in PBS.
All of the mAbs tested were purified from ascites fluid using Protein-A Sepharose CL-4B affinity column chromatography according to well-known methods. The eluted immunoglobulin was then dialyzed against PBS and treated with Detoxi-gel (Pierce Chemicals, Rockford, Ill.) to remove endotoxin. […] Monoclonal antibodies were therefore tested for the presence of endotoxin with the Chromogenic Limulus Amebocyte Lysate Assay (BioWhittaker, Walkersville, Md.) and only those mAbs without detectable endotoxin were used in the rabbit eye model assay.
Approximately 12 μl of casting material was placed into each peg and polymerized overnight in a sterile hood. Pellets were then sterilized by ultraviolet irradiation.
A series of eight animals were used for paired eye experiments where each animal received a Hydron implant containing a preselected cytokine with a preselected antibody or control immunoglobulin. Specifically, for each rabbit, one cornea was surgically implanted with a Hydron pellet containing either bFGF or VEGF in conjunction with mAb P1F6 and the other cornea was treated with either bFGF or VEGF in conjunction with MAb LM609. Individual pellets were implanted into surgically created “pockets” formed in the mid-stroma of the cornea of rabbits. The surgical procedure was done under sterile technique using a Wild model M691 operating microscope equipped with a beamsplitter to which was mounted a camera for photographically recording individual corneas. A 3 mm by 5 mm “pocket” was created in the corneal stroma by making a 3 mm incision to half the corneal thickness with a 69 Beaver blade. The stroma was dissected peripherally using an iris spatula and the pellet was implanted with its peripheral margin 2 mm from the limbus. […]
The effects of specific mAb integrin immunoreactivity on the above cytokine-induced angiogenesis is also quantified as shown in FIGS. 2A and 2B. […] Photographs were recorded on Kodak Ektachrome 64T slide film and images were converted for computer-assisted quantitation using Biorad's Molecular Analyst 1.1 software after acquisition through a Model GS670 imaging densitometer. […]
Each experiment consisted of eight rabbits in which one eye received a pellet comprising 100 nanograms (ng) bFGF and the other eye received a pellet comprising 1 microgram (ug) VEGF. […] After 7 days, the cornea were evaluated as described above.

cyclo(Arg-Ala-Asp-D-Phe-Val) (cyclo(RAD[dF]V); SMILES CC(C)[C@@H]1NC(=O)[C@@H](Cc2ccccc2)NC(=O)[C@H](CC(=O)O)NC(=O)[C@H](C)NC(=O)[C@H](CCCNC(=N)N)NC1=O) [peptide 69601, reference compound]
inhibition of VEGF-induced CAM angiogenesis [1]: did not effect angiogenesis
corneal blood vessel growth at 7 days, bFGF-stimulated eyes ([2]; peptide s.q. 50 ug per kg initial, 20 ug/kg daily, 100 ng bFGF pellet): substantial corneal blood vessel growth

cyclo(Arg-Gly-Asp-D-Phe-NMeVal) [peptide 85189]
inhibition of VEGF-induced CAM angiogenesis (number of blood vessel branch points) ([1]; 2 μg peptide intravenously): completely inhibited angiogenesis
amount of corneal blood vessel growth compared to controls ([2]; peptide s.q. 50 ug per kg initial, 20 ug/kg daily, 7 days, 100 ng bFGF pellet): less than 50%

B1: LM609: mouse monoclonal antibody, anti-αvβ3 (antibody, V domains shown)
VH: EVQLEESGGGLVKPGGSLKLSCAASGFAFSSYDMSWVRQIPEKRLEWVAKVSSGGGSTYYLDTVQGRFTISRDNAKNTLYLQMSSLNSEDTAMYYCARHNYGSFAYWGQGTLVTVSA
VL: ELVMTQTPATLSVTPGDSVSLSCRASQSISNHLHWYQQKSHESPRLLIKYASQSISGIPSRFSGSGSGTDFTLSINSVETEDFGMYFCQQSNSWPHTFGGGTKLEIKRA
inhibition of VEGF-induced CAM angiogenesis [1]: little effect on angiogenesis
effect on CAM angiogenesis induced by VEGF (angiogenesis index) ([1]; VEGF 1.0 μg/ml, antibodies 75 μg per embryo, calphostin C 100 nM): failed to do so
reduction of bFGF-induced angiogenesis (mean neovascular area) ([2]; 40 μg mAb in pellet, compared to paired eye treated with P1F6, p<0.005): 86%
inhibition of bFGF-induced corneal angiogenesis ([2]; Hydron pellet with 750 ng bFGF and 40 μg mAb, postoperative day 10): inhibited
